Tests used:
[1] = target: T1, human JAK2 kinase domain (JH1) (Homo sapiens, UniProt O60674); assay: JH1 biochemical assay for JAK2 (ADP-Glo kinase assay, recombinant JH1 catalytic domain, JAK3-974 peptide, 15 μM ATP); conditions: JAK2 JH1, ADP-Glo
T1 construct: recombinantly generated catalytic kinase (also known as JH1) domain of human JAK1, JAK2, JAK3 and TYK2
Summary of the method: (§1)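 Reactions ran 100 min with 50 μM substrate peptide (JAK3-342 for JAK1 at 4 nM enzyme; JAK3-974 for JAK2 0.2 nM, JAK3 0.3 nM, TYK2 2 nM), and ADP formed was read by ADP-Glo luminescence. Eleven-point 3-fold series from 10 or 1 μM; IC50 fitted by 4-parameter logistic model.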

[2] = target: T2, human TYK2 kinase domain (JH1) (Homo sapiens, UniProt P29597); assay: JH1 biochemical assay for TYK2 (ADP-Glo kinase assay, recombinant JH1 catalytic domain, JAK3-974 peptide, 10 μM ATP); conditions: TYK2 JH1, ADP-Glo
T2 construct: recombinantly generated catalytic kinase (also known as JH1) domain of human JAK1, JAK2, JAK3 and TYK2
T2 sequence (P29597 897-1176 limits assumed): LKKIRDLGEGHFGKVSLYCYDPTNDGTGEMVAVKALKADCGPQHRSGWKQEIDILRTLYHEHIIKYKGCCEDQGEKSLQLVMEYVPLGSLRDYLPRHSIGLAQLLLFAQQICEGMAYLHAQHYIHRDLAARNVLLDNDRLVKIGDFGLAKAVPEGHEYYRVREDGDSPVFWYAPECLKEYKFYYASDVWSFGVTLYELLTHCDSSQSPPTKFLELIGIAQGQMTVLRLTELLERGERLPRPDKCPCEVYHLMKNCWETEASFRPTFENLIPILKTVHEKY
Summary of the method: as §1

[3] = target: T3, human JAK3 kinase domain (JH1) (Homo sapiens, UniProt P52333); assay: JH1 biochemical assay for JAK3 (ADP-Glo kinase assay, recombinant JH1 catalytic domain, JAK3-974 peptide, 4 μM ATP); conditions: JAK3 JH1, ADP-Glo
T3 construct: recombinantly generated catalytic kinase (also known as JH1) domain of human JAK1, JAK2, JAK3 and TYK2
Summary of the method: as §1

[4] = target: Tyk2 kinase activity on STAT4 in NK92 cells (Homo sapiens, UniProt P29597); assay: pSTAT4 cell assay (MSD; NK92 cells, 30 ng/mL IL2 stimulation); format: cell-based; conditions: 30 ng/mL IL2, 15 minutes
Summary of the method: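 IC50 values come from 4-parameter logistic fits of normalized percent activity. Phospho-STAT was read by MSD (anti-STAT4 antibodies) in NK92 lysates after a 15 min stimulation with 30 ng/mL IL2. The serum-starved cells had been given compound for 1 h (10 points, four-fold, top 10 μM).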

[5] = target: T4, human JAK1 kinase domain (JH1) (Homo sapiens, UniProt P23458); assay: JH1 biochemical assay for JAK1 (ADP-Glo kinase assay, recombinant JH1 catalytic domain, JAK3-342 peptide, 35 μM ATP); conditions: JAK1 JH1, ADP-Glo
T4 construct: recombinantly generated catalytic kinase (also known as JH1) domain of human JAK1, JAK2, JAK3 and TYK2
Summary of the method: as §1

[6] = target: JAK1 kinase activity on STAT3 in TF1 cells (Homo sapiens, UniProt P23458); assay: pSTAT3 cell assay (MSD; TF1 cells, 30 ng/mL IL-6 stimulation); format: cell-based; conditions: 30 ng/mL IL-6, 15 minutes
Summary of the method: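 IC50 values derive from 4-parameter logistic fits of normalized pSTAT3 signal, measured by MSD with anti-STAT3 antibodies. TF1 cells, serum-starved beforehand, received compound for 1 hour (top concentration 10 μM, four-fold steps, 10 points) before a 15-minute IL-6 (30 ng/mL) stimulus.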

[7] = target: JAK2 kinase activity on STAT5 in TF1 cells (Homo sapiens, UniProt O60674); assay: pSTAT5 cell assay (MSD; TF1 cells, 30 ng/mL IL-3 stimulation); format: cell-based; conditions: 30 ng/mL IL-3, 15 minutes
Summary of the method: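 IC50 from a 4-parameter logistic fit of normalized pSTAT5 signal, measured by MSD in lysates of TF1 cells. Cells were serum-starved, exposed to compound for 1 h (top concentration 10 μM, four-fold, 10 points), then given IL-3 at 30 ng/mL for 15 min.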

Chain of Tyk2 kinase activity on STAT4 in NK92 cells (P29597 whole entry): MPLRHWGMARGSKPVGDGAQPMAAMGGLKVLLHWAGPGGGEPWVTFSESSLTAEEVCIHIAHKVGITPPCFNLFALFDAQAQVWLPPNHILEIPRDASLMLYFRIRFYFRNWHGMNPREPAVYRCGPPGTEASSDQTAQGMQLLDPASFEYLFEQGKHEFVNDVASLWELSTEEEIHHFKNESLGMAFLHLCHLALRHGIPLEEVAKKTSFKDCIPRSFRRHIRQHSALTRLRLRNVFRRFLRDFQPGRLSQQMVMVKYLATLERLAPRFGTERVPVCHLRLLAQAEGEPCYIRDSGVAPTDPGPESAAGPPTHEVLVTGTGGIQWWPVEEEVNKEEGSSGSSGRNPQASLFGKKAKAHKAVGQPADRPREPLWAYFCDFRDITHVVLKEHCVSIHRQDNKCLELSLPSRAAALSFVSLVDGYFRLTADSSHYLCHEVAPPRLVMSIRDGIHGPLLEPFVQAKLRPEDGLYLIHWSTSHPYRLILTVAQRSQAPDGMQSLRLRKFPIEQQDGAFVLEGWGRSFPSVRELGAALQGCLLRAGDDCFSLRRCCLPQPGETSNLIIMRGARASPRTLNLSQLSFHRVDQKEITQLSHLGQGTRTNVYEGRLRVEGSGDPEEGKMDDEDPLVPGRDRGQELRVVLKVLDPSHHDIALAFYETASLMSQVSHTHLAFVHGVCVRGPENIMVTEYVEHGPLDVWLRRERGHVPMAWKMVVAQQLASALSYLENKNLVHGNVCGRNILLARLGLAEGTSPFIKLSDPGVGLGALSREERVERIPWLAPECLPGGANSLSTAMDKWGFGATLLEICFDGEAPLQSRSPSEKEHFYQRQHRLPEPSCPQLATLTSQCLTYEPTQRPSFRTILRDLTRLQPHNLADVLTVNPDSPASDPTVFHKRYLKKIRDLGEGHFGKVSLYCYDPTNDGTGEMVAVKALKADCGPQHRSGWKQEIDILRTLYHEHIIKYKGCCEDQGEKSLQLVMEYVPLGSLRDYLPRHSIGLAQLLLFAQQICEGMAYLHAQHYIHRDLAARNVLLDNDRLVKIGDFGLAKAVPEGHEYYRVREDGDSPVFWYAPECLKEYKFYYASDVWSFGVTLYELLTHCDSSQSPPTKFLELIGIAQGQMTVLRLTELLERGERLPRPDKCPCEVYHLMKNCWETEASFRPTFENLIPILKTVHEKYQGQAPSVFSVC
Chain of JAK1 kinase activity on STAT3 in TF1 cells (P23458 whole entry): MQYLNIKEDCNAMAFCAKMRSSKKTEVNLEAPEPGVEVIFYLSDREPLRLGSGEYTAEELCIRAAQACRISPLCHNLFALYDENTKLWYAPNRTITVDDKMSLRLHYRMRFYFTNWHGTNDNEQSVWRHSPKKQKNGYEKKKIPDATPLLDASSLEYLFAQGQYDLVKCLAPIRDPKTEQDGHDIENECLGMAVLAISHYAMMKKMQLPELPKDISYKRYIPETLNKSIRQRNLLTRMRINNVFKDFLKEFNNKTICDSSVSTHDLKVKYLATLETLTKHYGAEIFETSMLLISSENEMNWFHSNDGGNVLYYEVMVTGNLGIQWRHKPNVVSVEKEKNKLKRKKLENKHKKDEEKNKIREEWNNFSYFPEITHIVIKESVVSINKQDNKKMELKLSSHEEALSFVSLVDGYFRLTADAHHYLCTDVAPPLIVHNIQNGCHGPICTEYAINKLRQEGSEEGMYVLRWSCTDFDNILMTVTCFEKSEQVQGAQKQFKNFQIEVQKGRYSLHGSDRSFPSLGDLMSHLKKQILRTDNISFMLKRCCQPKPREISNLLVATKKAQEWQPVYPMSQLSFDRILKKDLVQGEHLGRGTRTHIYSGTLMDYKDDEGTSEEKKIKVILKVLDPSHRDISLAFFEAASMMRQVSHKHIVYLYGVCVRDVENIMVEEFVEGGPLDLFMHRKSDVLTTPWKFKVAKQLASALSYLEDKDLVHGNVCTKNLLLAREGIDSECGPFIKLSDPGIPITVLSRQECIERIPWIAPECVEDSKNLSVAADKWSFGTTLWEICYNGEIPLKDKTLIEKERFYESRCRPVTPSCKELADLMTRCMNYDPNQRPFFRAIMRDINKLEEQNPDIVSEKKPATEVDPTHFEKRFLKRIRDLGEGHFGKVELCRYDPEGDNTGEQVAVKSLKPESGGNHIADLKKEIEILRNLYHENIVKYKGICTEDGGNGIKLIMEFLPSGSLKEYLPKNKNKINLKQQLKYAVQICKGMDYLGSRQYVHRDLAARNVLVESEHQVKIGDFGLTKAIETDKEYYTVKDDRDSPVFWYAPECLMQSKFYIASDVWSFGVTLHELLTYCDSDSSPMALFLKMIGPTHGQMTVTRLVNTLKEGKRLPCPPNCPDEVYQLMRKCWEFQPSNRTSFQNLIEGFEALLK
T4 sequence (P23458 875-1153 limits assumed): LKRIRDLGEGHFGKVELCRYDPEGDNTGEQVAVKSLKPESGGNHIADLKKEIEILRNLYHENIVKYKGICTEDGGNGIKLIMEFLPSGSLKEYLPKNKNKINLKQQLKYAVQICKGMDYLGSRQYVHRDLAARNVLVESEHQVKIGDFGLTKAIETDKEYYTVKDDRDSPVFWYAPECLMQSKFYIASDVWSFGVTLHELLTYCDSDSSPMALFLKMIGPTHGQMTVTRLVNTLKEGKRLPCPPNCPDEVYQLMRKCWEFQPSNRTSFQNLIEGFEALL
Chain of JAK2 kinase activity on STAT5 in TF1 cells (O60674 whole entry): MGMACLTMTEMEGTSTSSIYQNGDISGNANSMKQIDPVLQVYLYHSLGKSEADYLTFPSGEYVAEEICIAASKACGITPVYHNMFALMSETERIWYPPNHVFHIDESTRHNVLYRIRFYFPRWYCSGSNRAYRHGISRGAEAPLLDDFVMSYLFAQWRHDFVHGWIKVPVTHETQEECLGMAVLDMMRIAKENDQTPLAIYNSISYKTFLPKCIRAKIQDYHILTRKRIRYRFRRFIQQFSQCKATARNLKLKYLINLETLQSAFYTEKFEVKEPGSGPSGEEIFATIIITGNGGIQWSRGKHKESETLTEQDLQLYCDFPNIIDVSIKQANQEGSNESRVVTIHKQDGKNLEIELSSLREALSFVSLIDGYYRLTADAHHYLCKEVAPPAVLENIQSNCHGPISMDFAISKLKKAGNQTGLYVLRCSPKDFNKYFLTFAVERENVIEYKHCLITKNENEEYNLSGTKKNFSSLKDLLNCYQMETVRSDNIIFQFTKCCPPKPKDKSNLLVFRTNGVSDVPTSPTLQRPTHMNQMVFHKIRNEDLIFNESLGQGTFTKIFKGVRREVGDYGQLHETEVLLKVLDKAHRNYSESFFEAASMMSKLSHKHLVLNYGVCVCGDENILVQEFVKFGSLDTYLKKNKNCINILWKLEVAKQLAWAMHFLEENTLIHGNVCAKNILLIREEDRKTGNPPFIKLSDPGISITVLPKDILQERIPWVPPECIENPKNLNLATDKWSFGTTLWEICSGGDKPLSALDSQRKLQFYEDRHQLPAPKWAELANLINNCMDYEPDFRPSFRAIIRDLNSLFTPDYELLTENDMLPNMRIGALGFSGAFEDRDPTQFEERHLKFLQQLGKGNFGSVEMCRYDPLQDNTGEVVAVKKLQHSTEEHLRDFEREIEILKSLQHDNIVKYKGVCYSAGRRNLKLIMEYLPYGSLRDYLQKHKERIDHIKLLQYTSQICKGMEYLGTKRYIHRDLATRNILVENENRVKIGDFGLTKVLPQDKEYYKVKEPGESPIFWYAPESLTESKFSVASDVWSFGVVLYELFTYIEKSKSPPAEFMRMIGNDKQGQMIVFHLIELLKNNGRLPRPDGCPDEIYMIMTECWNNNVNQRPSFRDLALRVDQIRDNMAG
T3 sequence (P52333 822-1111 limits assumed): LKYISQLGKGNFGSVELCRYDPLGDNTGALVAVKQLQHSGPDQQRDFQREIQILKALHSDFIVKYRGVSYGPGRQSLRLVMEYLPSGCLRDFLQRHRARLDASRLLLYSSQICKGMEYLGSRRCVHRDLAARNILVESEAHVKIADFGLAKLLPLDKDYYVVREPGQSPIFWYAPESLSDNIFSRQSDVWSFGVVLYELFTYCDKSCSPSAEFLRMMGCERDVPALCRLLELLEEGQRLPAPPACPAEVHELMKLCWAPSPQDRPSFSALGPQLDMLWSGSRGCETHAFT
T1 sequence (O60674 849-1124 limits assumed): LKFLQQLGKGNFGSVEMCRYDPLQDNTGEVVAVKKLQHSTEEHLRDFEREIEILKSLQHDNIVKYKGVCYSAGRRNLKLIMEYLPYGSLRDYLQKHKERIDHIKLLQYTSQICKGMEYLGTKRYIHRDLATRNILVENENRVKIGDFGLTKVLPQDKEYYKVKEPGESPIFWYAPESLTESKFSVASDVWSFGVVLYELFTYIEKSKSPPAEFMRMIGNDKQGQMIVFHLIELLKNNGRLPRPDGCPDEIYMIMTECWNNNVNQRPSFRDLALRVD

Structure (SMILES) | IC50 [1] | IC50 [2] | IC50 [3] | IC50 [4] | IC50 [5] | IC50 [6] | IC50 [7]
C[C@@H]1CN(c2ccnn3cc(-c4cnn(C5CC6(C5)CN(C)C6)c4)cc23)C(=O)[C@]1(C#N)C1CC1 [Example 315, (3R,4S)-3-cyclopropyl-4-methyl-1-(6-(1-(2-methyl-2-azaspiro[3.3]heptan-6-yl)-1H-pyrazol-4-yl)pyrrolo[1,2-b]pyridazin-4-yl)-2-oxopyrrolidine-3-carbonitrile] | 100 to 1000 nM | < 5 nM | < 100 nM | 50 to 100 nM | 100 to 1000 nM | 1000 to 5000 nM | 1000 to 5000 nM
C[C@@H]1CN(c2ccnn3cc(-c4cnn(C5CN(C)C5)c4)cc23)C(=O)[C@]1(C#N)C1CC1 [Example 316, (3R,4S)-3-cyclopropyl-4-methyl-1-(6-(1-(1-methylazetidin-3-yl)-1H-pyrazol-4-yl)pyrrolo[1,2-b]pyridazin-4-yl)-2-oxopyrrolidine-3-carbonitrile] | 100 to 1000 nM | < 5 nM | 100 to 1000 nM | 50 to 100 nM | 100 to 1000 nM | 5000 to 10000 nM | 5000 to 10000 nM
C[C@@H]1CN(c2ccnn3cc(-c4cnn(C5(CC#N)CC5)c4)cc23)C(=O)[C@]1(C#N)C1CC1 [Example 323] | < 100 nM | < 5 nM | < 100 nM | 50 to 100 nM | < 100 nM | 1000 to 5000 nM | 1000 to 5000 nM
C[C@@H]1CN(c2ccnn3cc(-c4cnn(CC5(C#N)CC5)c4)cc23)C(=O)[C@]1(C#N)C1CC1 [Example 324, (3R,4S)-1-(6-(1-((1-cyanocyclopropyl)methyl)-1H-pyrazol-4-yl)pyrrolo[1,2-b]pyridazin-4-yl)-3-cyclopropyl-4-methyl-2-oxopyrrolidine-3-carbonitrile] | < 100 nM | < 5 nM | < 100 nM | 50 to 100 nM | < 100 nM | 100 to 1000 nM | 100 to 1000 nM
C[C@@H]1CN(c2ccnn3cc(-c4cnn([C@H]5C[C@@](F)(C#N)C5)c4)cc23)C(=O)[C@]1(C#N)C1CC1 [Example 326, (3R,4S)-1-(6-(1-((1r,3R)-3-cyano-3-fluorocyclobutyl)-1H-pyrazol-4-yl)pyrrolo[1,2-b]pyridazin-4-yl)-3-cyclopropyl-4-methyl-2-oxopyrrolidine-3-carbonitrile] | < 100 nM | < 5 nM | < 100 nM | > 100 nM | < 100 nM | 1000 to 5000 nM | 1000 to 5000 nM
C[C@@H]1CN(c2ccnn3cc(-c4cnn([C@H]5C[C@@H](C#N)C5)c4)cc23)C(=O)[C@]1(C#N)C1CC1 [Example 329, (3R,4S)-1-(6-(1-((1s,3S)-3-cyanocyclobutyl)-1H-pyrazol-4-yl)pyrrolo[1,2-b]pyridazin-4-yl)-3-cyclopropyl-4-methyl-2-oxopyrrolidine-3-carbonitrile] | < 100 nM | < 5 nM | < 100 nM | 20 to 50 nM | < 100 nM | 100 to 1000 nM | 100 to 1000 nM
C[C@@H]1CN(c2ccnn3cc(-c4cnn([C@H]5C[C@H](C#N)C5)c4)cc23)C(=O)[C@]1(C#N)C1CC1 [Example 330, (3R,4S)-1-(6-(1-((1r,3R)-3-cyanocyclobutyl)-1H-pyrazol-4-yl)pyrrolo[1,2-b]pyridazin-4-yl)-3-cyclopropyl-4-methyl-2-oxopyrrolidine-3-carbonitrile] | < 100 nM | < 5 nM | < 100 nM | 20 to 50 nM | < 100 nM | 1000 to 5000 nM | 1000 to 5000 nM
C[C@@H]1CN(c2ccnn3cc(-c4cnn(C5CCN(C)CC5)c4)cc23)C(=O)[C@]1(C#N)C1CC1 [Example 331, (3R,4S)-3-cyclopropyl-4-methyl-1-(6-(1-(1-methylpiperidin-4-yl)-1H-pyrazol-4-yl)pyrrolo[1,2-b]pyridazin-4-yl)-2-oxopyrrolidine-3-carbonitrile] | < 100 nM | < 5 nM | < 100 nM | 50 to 100 nM | 100 to 1000 nM | 1000 to 5000 nM | 100 to 1000 nM
C[C@@H]1CN(c2ccnn3cc(-c4cnn(C5CCN(C)C5)c4)cc23)C(=O)[C@]1(C#N)C1CC1 (stereo partly drawn) [Example 332, (3R,4S)-3-cyclopropyl-4-methyl-1-(6-(1-(1-methylpyrrolidin-3-yl)-1H-pyrazol-4-yl)pyrrolo[1,2-b]pyridazin-4-yl)-2-oxopyrrolidine-3-carbonitrile] | 100 to 1000 nM | < 5 nM | < 100 nM | 50 to 100 nM | 100 to 1000 nM | 1000 to 5000 nM | 1000 to 5000 nM
Cc1cnn(-c2cc3c(N4C[C@@H](C)[C@@](C#N)(C5CC5)C4=O)ccnn3c2)c1 [Example 333, (3R,4S)-3-cyclopropyl-4-methyl-1-(6-(4-methyl-1H-pyrazol-1-yl)pyrrolo[1,2-b]pyridazin-4-yl)-2-oxopyrrolidine-3-carbonitrile] | 100 to 1000 nM | 5 to 20 nM | 100 to 1000 nM | > 100 nM | 100 to 1000 nM | > 10000 nM | > 10000 nM

Further lines, results first:

IC50 [1] | IC50 [2] | IC50 [3] | IC50 [4] | IC50 [5] | IC50 [6] | IC50 [7] | Structure (SMILES)
< 100 nM | < 5 nM | < 100 nM | 50 to 100 nM | < 100 nM | 100 to 1000 nM | 100 to 1000 nM | C[C@@H]1CN(c2nc(-c3cnn([C@H]4C[C@](C)(C#N)C4)c3)cn3ncc(F)c23)C(=O)[C@]1(C#N)C1CC1 [Example 308, (3R,4S)-1-(6-(1-((1r,3R)-3-cyano-3-methylcyclobutyl)-1H-pyrazol-4-yl)-3-fluoropyrazolo[1,5-a]pyrazin-4-yl)-3-cyclopropyl-4-methyl-2-oxopyrrolidine-3-carbonitrile]
< 100 nM | < 5 nM | < 100 nM | > 100 nM | < 100 nM | 5000 to 10000 nM | 1000 to 5000 nM | C[C@@H]1CN(c2nc(-c3cnn([C@H]4C[C@@](F)(C#N)C4)c3)cn3ncc(F)c23)C(=O)[C@]1(C#N)C1CC1 [Example 309, (3R,4S)-1-(6-(1-((1r,3R)-3-cyano-3-fluorocyclobutyl)-1H-pyrazol-4-yl)-3-fluoropyrazolo[1,5-a]pyrazin-4-yl)-3-cyclopropyl-4-methyl-2-oxopyrrolidine-3-carbonitrile]
< 100 nM | < 5 nM | < 100 nM | 20 to 50 nM | < 100 nM | 100 to 1000 nM | 100 to 1000 nM | C[C@@H]1CN(c2ccnn3cc(-c4cnn(C5CC6(COC6)C5)c4)cc23)C(=O)[C@]1(C#N)C1CC1 [Example 319, (3R,4S)-1-(6-(1-(2-oxaspiro[3.3]heptan-6-yl)-1H-pyrazol-4-yl)pyrrolo[1,2-b]pyridazin-4-yl)-3-cyclopropyl-4-methyl-2-oxopyrrolidine-3-carbonitrile]
< 100 nM | < 5 nM | < 100 nM | 50 to 100 nM | 100 to 1000 nM | 1000 to 5000 nM | 1000 to 5000 nM | C[C@@H]1CN(c2ccnn3cc(-c4cnn(C56CC(C#N)(C5)C6)c4)cc23)C(=O)[C@]1(C#N)C1CC1 [Example 320, (3R,4S)-1-(6-(1-(3-cyanobicyclo[1.1.1]pentan-1-yl)-1H-pyrazol-4-yl)pyrrolo[1,2-b]pyridazin-4-yl)-3-cyclopropyl-4-methyl-2-oxopyrrolidine-3-carbonitrile]
< 100 nM | < 5 nM | 100 to 1000 nM | 50 to 100 nM | 100 to 1000 nM | 1000 to 5000 nM | 1000 to 5000 nM | C[C@@H]1CN(c2ccnn3cc(-c4cn(C5COC5)nc4F)cc23)C(=O)[C@]1(C#N)C1CC1 [Example 321, (3R,4S)-3-cyclopropyl-1-(6-(3-fluoro-1-(oxetan-3-yl)-1H-pyrazol-4-yl)pyrrolo[1,2-b]pyridazin-4-yl)-4-methyl-2-oxopyrrolidine-3-carbonitrile]

Source: patent US20260297085A1, “1 H-PYRROLO[2,3-B]PYRIDIN-4-YL]-2-OXOPYRROLIDINE-3-CARBONITRILE DERIVATIVES AS TYROSINE KINASE 2 (TYK2) INHIBITORS FOR THE TREATMENT OF INFLAMMATORY DISEASES” (BIOGEN MA INC., priority 2023, published 2026)
